What was measured:
[1] = molecular target: Integrin alpha-IIb/beta-3 (Homo sapiens, UniProt P05106+P08514); test: In vitro inhibitory activity against blockage of binding of fibrinogen to purified human GPIIbIIIa; format: protein-complex assay
Homo sapiens = species: Homo sapiens; test: In vitro ability to inhibit the aggregation of ADP-stimulated human platelets; format: functional

Chain of Integrin alpha-IIb/beta-3 (P05106 27-788 limits assumed): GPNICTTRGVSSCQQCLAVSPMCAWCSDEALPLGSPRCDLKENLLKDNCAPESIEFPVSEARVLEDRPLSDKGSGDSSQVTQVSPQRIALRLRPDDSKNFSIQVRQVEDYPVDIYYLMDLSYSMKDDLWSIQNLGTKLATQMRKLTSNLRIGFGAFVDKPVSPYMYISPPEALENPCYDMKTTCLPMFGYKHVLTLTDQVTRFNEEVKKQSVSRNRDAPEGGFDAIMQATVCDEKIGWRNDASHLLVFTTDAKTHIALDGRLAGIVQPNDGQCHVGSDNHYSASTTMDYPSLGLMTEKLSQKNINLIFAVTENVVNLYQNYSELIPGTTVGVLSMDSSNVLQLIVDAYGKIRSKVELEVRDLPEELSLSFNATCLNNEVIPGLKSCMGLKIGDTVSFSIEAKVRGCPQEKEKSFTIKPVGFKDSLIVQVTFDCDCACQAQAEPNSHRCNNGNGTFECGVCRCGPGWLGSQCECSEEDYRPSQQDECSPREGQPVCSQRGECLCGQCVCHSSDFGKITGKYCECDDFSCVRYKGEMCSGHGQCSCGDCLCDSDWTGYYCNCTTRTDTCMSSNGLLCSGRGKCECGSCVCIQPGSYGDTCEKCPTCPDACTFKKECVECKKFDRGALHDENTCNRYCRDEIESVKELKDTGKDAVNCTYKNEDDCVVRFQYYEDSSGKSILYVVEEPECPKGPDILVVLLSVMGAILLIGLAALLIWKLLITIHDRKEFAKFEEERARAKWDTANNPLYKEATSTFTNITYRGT
Chain of Integrin alpha-IIb/beta-3 (P08514 32-887 limits assumed): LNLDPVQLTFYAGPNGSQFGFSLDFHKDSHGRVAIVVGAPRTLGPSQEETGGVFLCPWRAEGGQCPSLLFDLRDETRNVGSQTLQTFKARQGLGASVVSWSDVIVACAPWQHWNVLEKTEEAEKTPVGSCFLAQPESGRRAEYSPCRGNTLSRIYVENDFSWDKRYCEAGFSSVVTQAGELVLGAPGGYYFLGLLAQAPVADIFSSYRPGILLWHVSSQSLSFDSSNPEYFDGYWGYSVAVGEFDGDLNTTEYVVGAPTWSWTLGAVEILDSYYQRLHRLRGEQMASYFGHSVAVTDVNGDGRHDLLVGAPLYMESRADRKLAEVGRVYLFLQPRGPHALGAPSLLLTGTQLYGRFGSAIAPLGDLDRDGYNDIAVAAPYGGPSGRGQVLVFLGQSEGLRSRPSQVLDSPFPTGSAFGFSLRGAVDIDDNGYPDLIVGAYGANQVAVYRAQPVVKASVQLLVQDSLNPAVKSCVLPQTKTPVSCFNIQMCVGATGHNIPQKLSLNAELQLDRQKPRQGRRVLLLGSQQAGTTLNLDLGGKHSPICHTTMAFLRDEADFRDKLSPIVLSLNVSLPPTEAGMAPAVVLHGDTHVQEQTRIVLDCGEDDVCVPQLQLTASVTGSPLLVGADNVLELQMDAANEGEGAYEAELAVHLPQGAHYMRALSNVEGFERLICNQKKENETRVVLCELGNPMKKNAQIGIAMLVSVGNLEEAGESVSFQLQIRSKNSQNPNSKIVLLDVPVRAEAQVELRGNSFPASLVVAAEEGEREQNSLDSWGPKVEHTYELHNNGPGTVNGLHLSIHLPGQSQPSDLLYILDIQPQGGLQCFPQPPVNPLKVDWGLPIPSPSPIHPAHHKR
Chain of Integrin alpha-IIb/beta-3 (P08514 891-1039 limits assumed): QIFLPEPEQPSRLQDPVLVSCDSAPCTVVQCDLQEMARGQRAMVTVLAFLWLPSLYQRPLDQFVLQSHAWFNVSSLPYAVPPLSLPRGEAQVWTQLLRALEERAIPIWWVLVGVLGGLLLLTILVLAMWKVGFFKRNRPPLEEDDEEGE

Compound | IC50 [1] | IC50 (Homo sapiens)
Cc1noc(C)c1S(=O)(=O)N[C@@H](CNC(=O)C1CCC2(CC1)CCN(c1ccncc1)CC2)C(=O)O |  | 40 nM
O=C(O)CCC(=O)N1CCC2(CCC(C(=O)N3CCC(C4CCNCC4)CC3)CC2)CC1 | 100000 nM | 50000 nM
O=C(N[C@@H](CNC(=O)C1CCC2(CC1)CCN(c1ccncc1)CC2)C(=O)O)OCc1ccccc1 | 2 nM | 2700 nM
O=C(O)CN1CCC2(CCC(C(=O)N3CCC(C4CCNCC4)CC3)CC2)CC1 | 250 nM | 289 nM
CC(CNC(=O)C1CCC2(CC1)CCN(c1ccncc1)CC2)CC(=O)O (stereo not drawn) | 332 nM | 4000 nM
N=C(N)c1ccc(N2CCC3(CCC(C(=O)NCCCC(=O)O)CC3)CC2)cc1 | 5000 nM | 37100 nM
O=C(O)CCCC(=O)N1CCC2(CCC(C(=O)N3CCC(C4CCNCC4)CC3)CC2)CC1 | 100000 nM | 50000 nM
O=C(O)CN1CCC2(CCC(C(=O)N3CCN(c4ccncc4)CC3)CC2)CC1 | 364 nM | 117 nM
C[C@@H](CC(=O)O)NC(=O)C1CCC2(CC1)CCN(c1ccncc1)CC2 | 616 nM | 14300 nM
O=C(O)CCN1CCC2(CCC(C(=O)N3CCN(c4ccncc4)CC3)CC2)CC1 | 3450 nM | 7900 nM
N=C(N)c1ccc(N2CCC3(CCC(C(=O)NCCC(=O)O)CC3)CC2)cc1 | 60 nM | 5500 nM
O=C(O)COC1CCC2(CC1)CCN(c1ccncc1)CC2 | 250 nM | 1100 nM
O=C(O)CCNC1CCC2(CC1)CCN(c1ccncc1)CC2 |  | 4500 nM
Cc1ccc(S(=O)(=O)N[C@@H](CNC(=O)C2CCC3(CC2)CCN(c2ccncc2)CC3)C(=O)O)cc1 |  | 177 nM
O=C(O)C[C@@H](NC(=O)C1CCC2(CC1)CCN(c1ccncc1)CC2)c1ccccc1 |  | 77000 nM

The remaining compounds from weak to strong by IC50 (Homo sapiens), led by results:

IC50 [1] | IC50 (Homo sapiens) | Compound
 | 38500 nM | N=C(N)c1ccc(C(=O)N2CCC3(CCC(C(=O)NCC(=O)O)CC3)CC2)cc1
15000 nM | 19700 nM | N=C(N)c1ccc(C(=O)N2CCC3(CCC(C(=O)O)CC3)CC2)cc1
830 nM | 12200 nM | N[C@@H](CNC(=O)C1CCC2(CC1)CCN(c1ccncc1)CC2)C(=O)O
319 nM | 12000 nM | O=C(O)CCCNC(=O)C1CCC2(CC1)CCN(c1ccncc1)CC2
8 nM | 1300 nM | CCCCOC(=O)N[C@@H](CNC(=O)C1CCC2(CC1)CCN(c1ccncc1)CC2)C(=O)O
160 nM | 890 nM | O=C(O)CNC1CCC2(CC1)CCN(c1ccncc1)CC2
 | 179 nM | CCCCS(=O)(=O)N[C@@H](CNC(=O)C1CCC2(CC1)CCN(c1ccncc1)CC2)C(=O)O

Source: ChEMBL document CHEMBL1134062, “Spirocyclic nonpeptide glycoprotein IIb-IIIa antagonists. Part 2: design of potent antagonists containing the 3-azaspiro[5.5]undecanes” (Bioorg Med Chem Lett, 2001)
